# Reference: patent US20100317699A1, “USE OF HEDGEHOG AGONISTS IN THE TREATMENT OF MUSCULOSKELETAL-RELATED DISORDERS” (NOVARTIS AG, priority 2008, published 2010)
# Several values for one entry are separate records, joined by “and”; a condition that tells them apart may be missing. Equal values may be shown once. Entries after “also recorded” stand apart in the source; their conditions may differ.
# Legend:
# [1] = tested on: isolated satellite cells; assay: Isolated satellite cell proliferation, total cell number and BrdU incorporation; format: cell-based, mouse; conditions: 48 hr treatment, versus vehicle
# Method: (§1) Cells. TM3 and C2C12 cells were obtained from ATCC, propagated according to manufacturer's instructions, and maintained at subconfluence. Both primary myoblasts and isolated satellite cells were grown in Ham's F10 media supplemented with 20% Fetal calf serum and 1% Penicillin/Streptomycin without βFGF. All cells were plated on pre-coated collagen dishes (MatTek) or on plastic culture plates treated with rat tail collagen type I (BD).
# Myoblast and Satellite cell isolation. Primary mouse myoblasts were isolated from mouse hind-limb muscles as described herein. Muscle satellite cells were isolated from hind-limb muscles of 4-6 week old C57BL/6J mice. Muscles were dissected and finely chopped with razor blades in DMEM. Chopped muscles were placed in a 50 mL Falcon tube with 30 mL of dissociation solution (0.1% Collagenase D, 0.25% Trypsin in DMEM) and agitated at 37° for 20 minutes. Following dissociation, 500 μl of fetal calf serum was added to block Trypsin activity and samples were passed through a 37 μM filter. Solutions were diluted two-fold in DMEM, passed through a […] filter, centrifuged at 1000 RPM for 15 minutes, and the subsequent pellet was re-suspended in 1% FCS/PBS. […]
# (§2) BrdU treatment. […] Three random images from four replicate experiments were analyzed for total cell (Dapi) and BrdU+ cell number. […]
# [2] = tested on: Cyclin D1; assay: Cyclin D1 protein levels, Western blot densitometry; format: cell-based; conditions: rSHH 1 μg/mL; densitometric scores relative to vehicle=100
# Method: (§3) Protein expression. For details of protein extraction and analysis, please see Supplementary Methods online. Antibodies used for Western are rabbit polyclonal antibodies against Gli1, total Akt, phosphorylated Akt-Ser473 (Cell Signaling) and Cyclin D1 (Abeam).
# (§4) Protein Expression. Cells were collected in lysis buffer (20 mM Tris, pH 7.5, 150 mM NaCl, 1 mM EDTA, 1 mM EGTA, 1% Nonidet NP-40, 1 mM β-glycerol phosphate, 1 mM Na3VO4, 1 μg/ml leupeptin, and 1 mM PMSF) and measured for protein concentration with a BCA protein assay kit (Pierce). Electrophoretic separation was performed utilizing 20-60 μg of protein on 4-12% mini-gels (Invitrogen). Proteins were transferred to a PVDF membrane, blocked in 5% blotto [5% powdered milk in TBST (Tris-buffered saline, 1% Tween 20)] for 1 hr followed by an overnight incubation at 4° C. with primary antibody. After overnight incubation, membranes were washed for 30 min in TBST and then probed with anti-rabbit antibody for 45 min at room temperature. After another 30 min of washing in TBST, the blots were developed with ECL. Once the appropriate image was captured, membranes were stained with Coomassie blue to verify equal loading in all lanes. Densitometric measurements were carried out using AlphaEase software (Alpha Innotech).
# [3] = tested on: DMD^MDX mice; assay: Intramuscular injection into DMD MDX mouse skeletal muscle, BrdU/Pax7 staining; format: in vivo; conditions: 500 μM IM once per day for two days
# Method: (§5) FIG. 3 is a graphic depiction of the design of in vivo experiments, further detailed herein. 6 to 8-week old wildtype (WT), DMD^MDX, or WT cardiotoxin-injured mice (Ctx-inj) received two consecutive bilateral IM injections of either vehicle (10% DMSO/PBS), or Shh-Ag (500 μM) into tibialis anterior (TA) or gastrocnemius (GA) muscles, followed by an IP injection of BrdU. Mice were sacrificed and muscles were then collected 3 or 7 days following ctx-injury for immunostaining (TA) or FACS analysis (GA); n=4 for all groups.
# (§6) Mice. All mouse protocols were approved by the Animal Care and Use Committee of Novartis Institutes for BioMedical Research. Wild-type (C57BL/6J) and C57BL/10 DMD^MDX mice were obtained from Jackson Labs. All analyses were performed on male mice approximately 6-8 weeks of age.
# (§7) Shh-Ag treatment. 20 μl (TA) or 50 μl (GA) of vehicle (10% DMSO/PBS) or 500 μM Shh-Ag was injected into the respective tibialis anterior or gastrocnemius muscles once per day for two consecutive days.
# as §2
# (§8) Immunostaining. […] Images were obtained using an ScanScope XT scanner and analyzed using Aperio ImageScope 6.25 software (Aperio Technologies). […]
# [4] = tested on: Cyclin D1; assay: Cyclin D1 mRNA expression in isolated SCs; format: cell-based
# Method: (§9) RNA and qRT-PCR. For analysis of gene expression, cells were treated with vehicle (DMSO) or 10 nM Shh-Ag for 24 hours. Total RNA was isolated with RNEasy Miniprep Kit (Qiagen), DNAse treated (RQ1, Promega) and reverse transcribed (iScript, Biorad) according to manufacturers instructions. Quantitative PCR was performed using Taqman Gene Expression Assays (Applied Biosystems) in an ABI7500 Fast system as per manufacturer's instructions. Gene expression changes were calculated using the comparative ΔΔCT method.
# Myoblast and Satellite cell isolation. Primary mouse myoblasts were isolated from mouse hind-limb muscles as described herein. Muscle satellite cells were isolated from hind-limb muscles of 4-6 week old C57BL/6J mice. Muscles were dissected and finely chopped with razor blades in DMEM. Chopped muscles were placed in a 50 mL Falcon tube with 30 mL of dissociation solution (0.1% Collagenase D, 0.25% Trypsin in DMEM) and agitated at 37° for 20 minutes. Following dissociation, 500 μl of fetal calf serum was added to block Trypsin activity and samples were passed through a 37 μM filter. Solutions were diluted two-fold in DMEM, passed through a […] filter, centrifuged at 1000 RPM for 15 minutes, and the subsequent pellet was re-suspended in 1% FCS/PBS. Syndecan 4 positive satellite cells were then isolated by fluorescent activated cell sorting (FACS) utilizing an ARIA-UV cell sorter (BD).
# [5] = tested on: Gli1; assay: Gli1 protein levels, Western blot densitometry; format: cell-based; conditions: rSHH 1 μg/mL; densitometric scores relative to vehicle=100
# Method: as §3, §4
# [6] = tested on: wild-type (WT) mice; assay: Intramuscular injection into wild-type mouse skeletal muscle, BrdU/Pax7 staining; format: in vivo; conditions: 500 μM IM once per day for two days
# Method: as §5, §6, §7, §2, §8
# [7] = tested on: Gli1; assay: Gli1 mRNA levels in myotubes; format: cell-based; conditions: 10 μM, 24 hours
# [8] = tested on: WT cardiotoxin-injured mice; assay: Cardiotoxin-induced muscle injury and regeneration in WT mice, staining and FACS analysis; format: in vivo, mouse
# Method: as §5, §6
# Cardiotoxin-induced regeneration. Muscle regeneration was induced by injecting 40 μl (TA) or 100 μl (GA) of cardiotoxin (10 μM Naja atra; Sigma) into the respective tibialis anterior or gastrocnemius muscles of WT C57BL/6J mice.
# as §7
# BrdU treatment. For treatment of isolated SCs, a 1:100 dilution of 5-bromodeoxyuridine (BrdU) labeling reagent (10 mg/mL; Invitrogen) was added to the culture media 24 hours following vehicle or Shh-Ag treatment. Cells were then incubated an additional 5 hours, fixed, probed for BrdU, mounted with Dapi containing medium (Vector Labs), and then imaged as described in Materials in Methods. Three random images from four replicate experiments were analyzed for total cell (Dapi) and BrdU+ cell number. For in vivo delivery, 100 μl of BrdU was intraperitoneally (IP) injected following the second vehicle or Shh-Ag intramuscular injection.
# FACS analysis. The following antibodies were used in this study: APC-conjugated anti-CD45 (BD), PE-conjugated anti-Syndecan 4 (BD), and FITC-conjugated anti-BrdU (BioVision). Muscles from treated mice were dissected and dissociated as described. To sort satellite cells for further experimentation, […] anti-syndecan 4 was utilized to positively select cells following ARIA (BD) mediated cell sorting. […]
# as §8
# To quantify the induction of SC proliferation, ctx-injured and Shh-Ag treated muscle samples (GA) were collected and processed for FACS analysis. A single-cell muscle suspension was gated based on CD45− and Syndecan4+ expression, commonly used identifiers of muscle SCs, and the resultant population was then analyzed for intracellular BrdU localization (see, e.g., FIG. 4). […]
# [9] = tested on: Cyclin D1; assay: Cyclin D1 mRNA expression in myoblasts; format: cell-based
# Method: as §9
# [10] = tested on: primary myoblasts; assay: Primary myoblast proliferation, PI staining and FACS analysis; format: cell-based, mouse
# Method: as §1
# Myoblast isolation. Two to three week-old male C57/BL/6J pups were used for the experiments. The mice were euthanized using CO2. Then the skin and fascia from the ankle joint up toward the hip were peeled to expose underlying muscles. The muscles (hamstring, quadriceps, tibialis anterior, extensor digitorum longus, gastrocnemius and soleus) from both legs were carefully removed, trying to any tendons and non-muscle tissues. The dissected muscles were placed in a sterile […] containing PBS and washed to remove hair and other debris. The muscles were then transferred to a sterile 35 mm^2 dish and 1.5 ml of a collagenase/dispase solution was added to digest the tissues. The tissues were mulched into a reasonably smooth pulp using sterile disposable followed by incubating at 37° C. for 12 min. They were then triturated using 5 ml plastic pipettes to homogenize the mixture. The incubation and triturating step was repeated once more. […]
Molecule,increase in the percentage of SCs incorporating BrdU [1],Cyclin D1 protein levels [2],mononuclear cell infiltration (BrdU+ staining) [3],number of Pax7−/BrdU+ cells [3],increase in Cyclin D1 mRNA expression [4],Gli1 protein levels [5],Pax7/BrdU fluorescent co-staining of muscle sections [6],BrdU staining of muscle sections ([6]; vehicle sections negative),"Gli1 mRNA levels, fold increase [7]","BrdU+, centrally-aligned nuclei in longitudinal muscle sections ([8]; 7 days following ctx-injury)","percent of proliferating (BrdU+) SCs ([8]; ctx-injured GA muscle, FACS, vehicle 4.82±0.33)","percentage of Pax7 expressing SCs that are Pax7+/BrdU+ double positive ([8]; ctx-injured WT muscle, compared to vehicle control)","number of BrdU+ cells at an early stage of regeneration ([8]; single cardiotoxin injury, WT mice, 500 μM IM)",increase in Cyclin D1 mRNA expression [9],myoblast proliferation on co-treatment of Shh-Ag with IGF-1 [10]
CNC1CCC(N(Cc2cccc(-c3ccncc3)c2)C(=O)c2sc3c(F)ccc(F)c3c2Cl)CC1 (stereo not drawn) [Shh-Ag],two fold increase,elevated protein expression; also recorded: increase,seemed to promote even greater mononuclear cell infiltration,greatly increased,more than 50%,induction; also recorded: increase,Pax7+/BrdU+ double positive cells were easily seen,displayed BrdU+ precursor cells,over 20 fold,"increase in BrdU+, centrally-aligned nuclei",10.67±1.87% and 10.6%,larger percentage,significantly increase,more than 50%,–
"IGF-1: Insulin-like growth factor I, a known skeletal muscle mitogen signaling through PI3K/Akt",–,–,–,–,–,–,–,–,–,–,–,–,–,–,did not significantly increase
